Test results: US11407729B2, “Quinoline and quinazoline compounds and methods of use thereof” (Stingray Therapeutics, Inc., priority 2019, dated 2022)
Where a name gives a salt, the structure may show the parent alone.

These compounds were tested against T1, ENPP1 protein (Homo sapiens, UniProt P22413) (assay: ENPP1 Inhibition Assay). Conditions: substrate Thymidine 5′-monophosphate p-nitrophenol ester; 37° C. for 45 minutes; absorbance at 405 nm.
T1 sequence (P22413 1-925): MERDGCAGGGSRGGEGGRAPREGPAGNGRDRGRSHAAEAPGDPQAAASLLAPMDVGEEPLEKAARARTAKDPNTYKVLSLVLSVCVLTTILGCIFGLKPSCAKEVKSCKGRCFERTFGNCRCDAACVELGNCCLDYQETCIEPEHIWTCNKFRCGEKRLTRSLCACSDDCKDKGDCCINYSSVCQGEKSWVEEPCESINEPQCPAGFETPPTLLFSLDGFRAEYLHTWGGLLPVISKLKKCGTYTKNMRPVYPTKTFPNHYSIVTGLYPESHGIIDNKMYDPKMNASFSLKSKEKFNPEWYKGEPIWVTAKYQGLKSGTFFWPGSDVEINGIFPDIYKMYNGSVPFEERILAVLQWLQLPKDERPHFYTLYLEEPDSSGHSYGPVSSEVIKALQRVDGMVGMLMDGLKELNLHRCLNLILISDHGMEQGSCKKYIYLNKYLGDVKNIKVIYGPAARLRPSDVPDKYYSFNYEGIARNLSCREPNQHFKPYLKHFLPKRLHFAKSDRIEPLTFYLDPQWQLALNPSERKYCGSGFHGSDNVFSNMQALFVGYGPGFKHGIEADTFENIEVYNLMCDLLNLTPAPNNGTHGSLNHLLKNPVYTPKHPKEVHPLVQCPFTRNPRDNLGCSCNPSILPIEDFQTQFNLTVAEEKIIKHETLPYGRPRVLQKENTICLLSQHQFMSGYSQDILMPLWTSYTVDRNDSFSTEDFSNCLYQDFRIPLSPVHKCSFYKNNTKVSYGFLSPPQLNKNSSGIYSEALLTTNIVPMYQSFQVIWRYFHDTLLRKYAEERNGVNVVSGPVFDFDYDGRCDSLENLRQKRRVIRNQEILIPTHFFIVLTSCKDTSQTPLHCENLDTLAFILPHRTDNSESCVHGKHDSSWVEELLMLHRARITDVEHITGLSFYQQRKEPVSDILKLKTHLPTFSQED
Format: biochemical
Set-up: purchased R&D 6136-EN-010
Protocol: 1. ENPP1 Inhibition Assay
An eight point serial dilution of drugs was prepared in 10× in assay buffer with the final assay concentrations starting at 10 μM, 3 μM, 1 μM, 0.3 μM . . . 0 μM. A dilution of DMSO was included as a control. The assay plate was set up as follows with each well in duplicate: 81 μL assay buffer+10 μL ENPP1 inhibitor or DMSO+5 μL Substrate+4 μL Enzyme. Both the enzyme and substrate were added to opposite sides of the well to ensure that there was no interaction until all wells had both components. The plate was then centrifuged gently for 10 seconds, followed by an incubation at 37° C. for 45 minutes.
IC50 values are determined using GraphPad Prism 5 software. The data were entered as an X-Y plot into the software as percent inhibition for each concentration of the drug. The concentration values of the drug were log transformed and the nonlinear regression was carried out using the “sigmoidal dose-response (variable slope)” option within the GraphPad software to model the data and calculate IC50 values.
`COc1cc2ncnc(N3CCC(CCNS(N)(=O)=O)CC3)c2cc1OP(=O)(O)O` [Compound I-03, sodium 7-methoxy-4-(4-(2-(sulfamoylamino)ethyl)piperidin-1-yl)quinazolin-6-yl phosphate] showed an IC50 of 2870 nM.
With `COc1ccc2c(N3CCC(C(C)CNS(N)(=O)=O)CC3)ccnc2c1` (stereo not shown) [Compound I-07, N-(2-(1-(7-methoxyquinolin-4-yl)piperidin-4-yl)propyl)aminosulfonamide] the IC50 was 250 nM.
For `COc1ccc2nccc(N3CCC(C(C)CNS(N)(=O)=O)CC3)c2c1` (stereo not shown) [Compound I-08, N-(2-(1-(6-methoxyquinolin-4-yl)piperidin-4-yl)propyl)aminosulfonamide], the IC50 was 224 nM.
Work on `COc1cc2nccc(N3CCC(C(C)CNS(N)(=O)=O)CC3)c2cc1O` (stereo not shown) [Compound I-09, N—(N-(2-(1-(6-hydroxy-7-methoxyquinolin-4-yl)piperidin-4-yl)propyl)sulfuricdiamide formate salt] yielded an IC50 of 1880 nM.
For `COCCOc1cc2c(N3CCC(C(C)CNS(N)(=O)=O)CC3)ccnc2cc1OC` (stereo not shown) [Compound I-10, N-(2-(1-(7-methoxy-6-(2-methoxyethoxy)quinolin-4-yl)piperidin-4-yl)propyl)aninosulfonamide formate salt], the IC50 was 156 nM.
Compound `COc1cc2nccc(N3CCC(C(C)CNS(N)(=O)=O)CC3)c2cc1OCCO` (stereo not shown) [Compound I-11, N-(2-(1-(6-(2-hydroxyethoxy)-7-methoxyquinolin-4-yl)piperidin-4-yl)propyl)aminosulfonamide formate salt] has an IC50 of 4490 nM.
For `COc1cc2nccc(N3CCC(C(C)(C)CNS(N)(=O)=O)CC3)c2cc1OC` [Compound I-14, N-(2-(1-(6,7-dimethoxyquinolin-4-yl)piperidin-4-yl)-2-methylpropyl)sulfuricdiamide hydro chloride salt], the IC50 was 35.2 nM.
`CNS(=O)(=O)NCC(C)C1CCN(c2ccnc3cc(OC)c(OC)cc23)CC1` (stereo not shown) [Compound I-15, N-(2-(1-(6,7-dimethoxyquinolin-4-yl)piperidin-4-yl)propyl)Methyaminosulfonamide] gave an IC50 of 3480 nM.
`COc1cc2nccc(N3CCC(C(C)CN(C4CC4)S(N)(=O)=O)CC3)c2cc1OC` (stereo not shown) [Compound I-16, N-cyclopropyl-N-(2-(1-(6,7-dimethoxyquinolin-4-yl)piperidin-4-yl)propyl)aminosulfonamide formate salt] gave an IC50 of 409 nM.
`COc1cc2nccc(N3CCC(C4CCCN(S(N)(=O)=O)C4)CC3)c2cc1OC` (stereo not shown) [Compound I-17, 6,7-dimethoxy-4-(1-(aminosulfonyl)-[3,4′-bipiperidin]-1′-yl)quinoline formate salt] showed an IC50 of 75.8 nM.
`COc1cc2nccc(N3CCC(C(=O)NC4(C#N)CC4)CC3)c2cc1OC` [Compound I-18, N-(1-cyanocyclopropyl)-1-(6,7-dimethoxyquinolin-4-yl)piperidine-4-carboxamide] was tested, and the IC50 was > 10000 nM.
For `COc1cc2nccc(N3CCC(C(C)CNS(C)(=O)=O)CC3)c2cc1OC` (stereo not shown) [Compound I-19, N-(2-(1-(6,7-dimethoxyquinolin-4-yl)piperidin-4-yl)propyl)methanesulfonamide], the IC50 was 3810 nM.
In the case of `COc1cc2nccc(N3CCN(C(C)CNS(N)(=O)=O)CC3)c2cc1OC` (stereo not shown) [Compound I-20, N-(2-(4-(6,7-dimethoxyquinolin-4-yl)piperazin-1-yl)propyl)aminosulfonamide formate salt], the IC50 is reported as 14 nM.
`COc1cc2nccc(N3CCN(CCNS(N)(=O)=O)[C@H](C)C3)c2cc1OC` [Compound I-21, (R)—N-(2-(4-(6,7-dimethoxyquinolin-4-yl)-2-methylpiperazin-1-yl)ethyl)aminosulfonamide formate salt] gave an IC50 of 344 nM.
Work on `COc1cc2nccc(N3CCC(C4(CNS(N)(=O)=O)CC4)CC3)c2cc1OC` [Compound I-22] yielded an IC50 of 9.09 nM.
Compound `COc1cc2nccc(N3CCC(NS(N)(=O)=O)CC3)c2cc1OC` [Compound I-23, N—(N-(1-(6,7-dimethoxyquinolin-4-yl)piperidin-4-yl)sulfuricdiamide formate salt] has an IC50 of 897 nM.
